Legend:
CYP1A2 = biological target: T1, CYP1A2 (Homo sapiens, UniProt P05177); test: Inhibitory DDI evaluation, cocktail incubation in HLM; type: in vitro ADME
T1 sequence (P05177 1-516): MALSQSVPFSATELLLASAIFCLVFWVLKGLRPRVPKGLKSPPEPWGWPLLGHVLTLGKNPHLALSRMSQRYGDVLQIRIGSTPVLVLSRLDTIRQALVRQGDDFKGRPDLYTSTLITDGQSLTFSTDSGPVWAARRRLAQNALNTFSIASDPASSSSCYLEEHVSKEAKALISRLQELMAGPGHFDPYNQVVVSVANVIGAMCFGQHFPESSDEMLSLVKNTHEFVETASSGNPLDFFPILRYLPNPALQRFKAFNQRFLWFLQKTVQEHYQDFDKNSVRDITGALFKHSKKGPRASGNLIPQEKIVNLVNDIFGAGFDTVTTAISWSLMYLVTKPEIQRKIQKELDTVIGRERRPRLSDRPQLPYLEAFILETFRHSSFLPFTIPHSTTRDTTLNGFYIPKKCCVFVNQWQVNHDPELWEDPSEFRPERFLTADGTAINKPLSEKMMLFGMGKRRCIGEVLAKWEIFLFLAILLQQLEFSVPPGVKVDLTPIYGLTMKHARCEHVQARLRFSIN

[1] = cited from earlier work
[2] = tested on: CYP1A2, CYP2B6, CYP2C8, CYP2C9, CYP2D6, CYP2E1, CYP3A4/5; test: Inhibitory DDI evaluation, cocktail incubation in HLM, all probe reactions; type: in vitro ADME; details: human, pooled human liver microsomes
CYP2B6 = biological target: T2, CYP2B6 (Homo sapiens, UniProt P20813); test: Inhibitory DDI evaluation, cocktail incubation in HLM; type: in vitro ADME
T2 sequence (P20813 1-491): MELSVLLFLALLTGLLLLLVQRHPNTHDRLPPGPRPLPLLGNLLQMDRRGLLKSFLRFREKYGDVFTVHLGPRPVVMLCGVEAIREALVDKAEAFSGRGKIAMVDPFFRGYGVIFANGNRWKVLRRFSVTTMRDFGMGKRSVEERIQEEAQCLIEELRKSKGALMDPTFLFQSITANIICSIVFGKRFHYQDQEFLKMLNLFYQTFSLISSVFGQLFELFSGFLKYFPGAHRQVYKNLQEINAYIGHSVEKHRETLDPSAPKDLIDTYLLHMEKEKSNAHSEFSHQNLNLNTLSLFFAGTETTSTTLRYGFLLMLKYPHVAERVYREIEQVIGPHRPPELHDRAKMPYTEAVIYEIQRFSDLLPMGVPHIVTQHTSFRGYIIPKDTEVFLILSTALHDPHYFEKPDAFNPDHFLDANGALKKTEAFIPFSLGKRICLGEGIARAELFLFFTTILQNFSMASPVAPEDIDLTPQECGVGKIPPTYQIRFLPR

CYP2C9 = CYP2C9 (Homo sapiens, UniProt P11712); test: as above; type: in vitro ADME
Sequence of CYP2C9 (P11712 whole entry): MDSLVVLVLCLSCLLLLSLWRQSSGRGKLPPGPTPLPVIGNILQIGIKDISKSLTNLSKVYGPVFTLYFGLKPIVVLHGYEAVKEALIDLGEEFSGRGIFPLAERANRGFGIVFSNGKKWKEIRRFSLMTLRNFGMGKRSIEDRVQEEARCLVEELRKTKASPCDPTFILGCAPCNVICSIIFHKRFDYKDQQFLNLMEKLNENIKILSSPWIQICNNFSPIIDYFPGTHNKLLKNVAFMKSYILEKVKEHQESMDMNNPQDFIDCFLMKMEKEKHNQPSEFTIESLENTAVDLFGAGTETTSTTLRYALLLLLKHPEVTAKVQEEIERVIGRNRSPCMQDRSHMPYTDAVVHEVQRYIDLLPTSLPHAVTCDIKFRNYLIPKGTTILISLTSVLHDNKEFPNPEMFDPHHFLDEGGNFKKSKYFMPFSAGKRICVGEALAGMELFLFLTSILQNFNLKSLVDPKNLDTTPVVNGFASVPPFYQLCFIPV

CYP2E1 = CYP2E1 (Homo sapiens, UniProt P05181); test: as above; type: in vitro ADME
Sequence of CYP2E1 (P05181 whole entry): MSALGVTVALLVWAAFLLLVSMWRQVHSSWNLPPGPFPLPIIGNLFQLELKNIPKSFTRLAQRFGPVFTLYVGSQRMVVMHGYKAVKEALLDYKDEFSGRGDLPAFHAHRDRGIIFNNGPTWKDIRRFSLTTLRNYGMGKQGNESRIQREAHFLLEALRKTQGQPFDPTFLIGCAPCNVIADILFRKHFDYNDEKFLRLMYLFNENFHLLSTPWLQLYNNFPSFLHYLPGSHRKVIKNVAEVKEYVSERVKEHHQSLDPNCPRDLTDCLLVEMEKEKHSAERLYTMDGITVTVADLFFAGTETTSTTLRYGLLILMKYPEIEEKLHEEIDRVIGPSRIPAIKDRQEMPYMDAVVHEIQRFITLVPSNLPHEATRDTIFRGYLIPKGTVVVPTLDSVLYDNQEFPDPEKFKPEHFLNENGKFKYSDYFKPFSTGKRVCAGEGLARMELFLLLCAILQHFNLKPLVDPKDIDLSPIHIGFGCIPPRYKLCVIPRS

CYP3A4/5 = test: Phase I enzyme determination in HLM with CYP-specific inhibitor ketoconazole; type: in vitro ADME, human; details: HLM with six CYP-specific inhibitors
CYP2C8 [3] = biological target: T3, CYP2C8 (Homo sapiens, UniProt P10632); test: Inhibitory DDI evaluation, cocktail incubation in HLM; type: in vitro ADME
T3 sequence (P10632 1-490): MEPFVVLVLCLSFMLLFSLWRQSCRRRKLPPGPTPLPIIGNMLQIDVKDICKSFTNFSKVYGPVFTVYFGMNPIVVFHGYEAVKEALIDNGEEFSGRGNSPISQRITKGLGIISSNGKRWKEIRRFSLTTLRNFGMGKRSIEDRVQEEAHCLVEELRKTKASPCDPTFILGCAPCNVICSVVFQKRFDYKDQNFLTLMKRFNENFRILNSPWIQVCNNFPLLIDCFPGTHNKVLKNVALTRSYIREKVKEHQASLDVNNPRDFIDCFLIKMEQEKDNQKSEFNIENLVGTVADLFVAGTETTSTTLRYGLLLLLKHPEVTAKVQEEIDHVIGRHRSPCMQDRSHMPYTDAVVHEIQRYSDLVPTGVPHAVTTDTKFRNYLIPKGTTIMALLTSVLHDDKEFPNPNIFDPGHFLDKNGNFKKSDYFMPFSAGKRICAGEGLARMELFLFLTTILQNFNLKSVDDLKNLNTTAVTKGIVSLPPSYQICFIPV

[4] = Metabolic stability study in HLM; type: in vitro ADME, human; details: for stability in the negative control assay: without HLM, NADPH regenerating system and UDPGA, up to 120 min, 37°C
CYP2D6 = CYP2D6 (Homo sapiens, UniProt P10635); test: Inhibitory DDI evaluation, cocktail incubation in HLM; type: in vitro ADME
Sequence of CYP2D6 (P10635 whole entry): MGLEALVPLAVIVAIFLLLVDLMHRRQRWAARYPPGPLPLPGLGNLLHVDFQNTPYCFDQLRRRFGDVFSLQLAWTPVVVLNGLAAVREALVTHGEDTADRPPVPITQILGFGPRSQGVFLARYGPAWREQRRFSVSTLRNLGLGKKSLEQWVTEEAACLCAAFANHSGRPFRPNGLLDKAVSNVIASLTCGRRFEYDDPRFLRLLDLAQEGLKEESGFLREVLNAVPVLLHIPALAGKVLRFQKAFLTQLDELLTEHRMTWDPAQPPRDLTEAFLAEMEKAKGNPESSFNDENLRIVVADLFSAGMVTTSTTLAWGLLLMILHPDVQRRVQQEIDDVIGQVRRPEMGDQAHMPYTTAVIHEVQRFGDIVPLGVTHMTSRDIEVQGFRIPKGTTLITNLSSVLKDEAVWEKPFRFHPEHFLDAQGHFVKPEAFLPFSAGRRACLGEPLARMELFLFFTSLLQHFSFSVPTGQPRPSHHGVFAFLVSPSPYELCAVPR

CYP2C8 [5] = biological target: T3, CYP2C8; test: Phase I enzyme determination in HLM with CYP-specific inhibitor quercetin; details: quercetin 10 μM
recombinant human UGT1A4 = test: Phase II enzyme determination with recombinant human UGT; type: in vitro ADME; details: rotundic acid 2.5 μM, UGT1A4 0.25 mg protein/mL, 20 min
recombinant human UGT1A9 = test: as above; type: in vitro ADME; details: rotundic acid 2.5 μM, UGT1A9 0.25 mg protein/mL, 20 min
recombinant human UGT1A6 = test: as above; type: in vitro ADME; details: rotundic acid 2.5 μM, UGT1A6 0.25 mg protein/mL, 20 min
recombinant human UGT2B7 = test: as above; type: in vitro ADME; details: rotundic acid 2.5 μM, UGT2B7 0.25 mg protein/mL, 20 min
recombinant human UGT1A1 = test: as above; type: in vitro ADME; details: rotundic acid 2.5 μM, UGT1A1 0.25 mg protein/mL, 20 min

| IC50 (CYP1A2) [µM] | IC50 at 20 min [2] [µM] | IC50 (CYP2B6) [µM] | IC50 (CYP2C9) [µM] | IC50 (CYP2E1) [µM] | IC50 (CYP2C8 [3]) [µM] | stability in the negative control assay [4] | IC50 (CYP2D6) [µM] | SMILES | enzymes catalyzing hydroxylation (CYP3A4/5) | also measured |
| --- | --- | --- | --- | --- | --- | --- | --- | --- | --- | --- |
| > 50 | > 50 | > 50 | > 50 | > 50 | > 50 | stable | > 50 | C[C@@H]1CC[C@]2(C(=O)O[C@@H]3O[C@H](CO)[C@@H](O)[C@H](O)[C@H]3O)CC[C@]3(C)C(=CC[C@@H]4[C@@]5(C)CC[C@H](O)[C@@](C)(CO)[C@@H]5CC[C@]43C)[C@@H]2[C@]1(C)O [pedunculoside] | mainly catalyzed by CYP3A4/5 and partly by CYP2C8 | Cmax ([1]; plasma, after oral administration, converted from ng/mL): 0.154 to 0.768 µM; elimination half-life ([1]; rats, oral or intravenous): short |
|  |  |  |  |  |  |  |  | O=c1c(O)c(-c2ccc(O)c(O)c2)oc2cc(O)cc(O)c12 [quercetin] |  | generation rate of PE + O (1) (CYP2C8 [5]): approximately 45%; generation rate of PE + O (2) (CYP2C8 [5]): approximately 60% |
| > 50 | > 50 | > 50 | > 50 | > 50 | > 50 | stable | > 50 | C[C@@H]1CC[C@]2(C(=O)O)CC[C@]3(C)C(=CC[C@@H]4[C@@]5(C)CC[C@H](O)[C@@](C)(CO)[C@@H]5CC[C@]43C)[C@@H]2[C@]1(C)O [rotundic acid] | almost exclusively catalyzed by CYP3A4/5 | generation of glucuronidated rotundic acid (recombinant human UGT1A4): detected; generation of glucuronidated rotundic acid (recombinant human UGT1A9): not detected; generation of glucuronidated rotundic acid (recombinant human UGT1A6): not detected; generation of glucuronidated rotundic acid (recombinant human UGT2B7): not detected; generation of glucuronidated rotundic acid (recombinant human UGT1A1): not detected; metabolized after incubation for 120 min ([4]; ~1 μM, HLM, UDPGA absent (UDPGA-)): ~ 50%; compound remaining after 120 min ([4]; ~1 μM, HLM, absence of the NADPH regeneration system (NADPH-)): approximately 25%; rotundic acid remained after 120 min ([4]; ~1 μM, HLM, normal group, under regular conditions): less than 10% |

From PMC11469747 (Clinical and Translational Science, 2024)
